This note sets out measurements from patent publication US9102591B2, “Benzamides” (H. Lundbeck A/S, priority 2012, dated 2015).

Sequence of P2X7 receptor (Q99572 whole entry): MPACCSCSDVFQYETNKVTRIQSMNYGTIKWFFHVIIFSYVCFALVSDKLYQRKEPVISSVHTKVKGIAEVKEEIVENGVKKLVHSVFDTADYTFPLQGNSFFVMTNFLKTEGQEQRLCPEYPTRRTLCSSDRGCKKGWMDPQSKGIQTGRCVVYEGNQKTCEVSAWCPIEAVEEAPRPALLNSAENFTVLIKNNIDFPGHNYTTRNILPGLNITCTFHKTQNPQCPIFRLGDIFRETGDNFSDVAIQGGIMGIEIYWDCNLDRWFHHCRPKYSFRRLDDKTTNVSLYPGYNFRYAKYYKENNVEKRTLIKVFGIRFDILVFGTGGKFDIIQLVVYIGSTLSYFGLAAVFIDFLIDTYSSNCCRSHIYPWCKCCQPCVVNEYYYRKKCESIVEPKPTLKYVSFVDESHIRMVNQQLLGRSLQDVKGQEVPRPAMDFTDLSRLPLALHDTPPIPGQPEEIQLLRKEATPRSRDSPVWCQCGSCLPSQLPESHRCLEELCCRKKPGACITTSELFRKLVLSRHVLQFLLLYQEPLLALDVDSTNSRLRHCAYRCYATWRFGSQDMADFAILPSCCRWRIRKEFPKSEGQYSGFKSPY

In this experiment the target is P2X7 receptor (Homo sapiens (Human), UniProt Q99572). In words: P2X7 FLIPR assay (BzATP-stimulated calcium fluorescence, antagonist IC50). It is filed as cell-based. The method, boiled down:
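Cells expressing P2X7 receptor (human, rat or mouse), plated 24 hours earlier in low-serum medium, loaded with Fluo-4 NW dye (30 min 37° C, 30 min room temperature).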
Broadly, the IC50 is the point on the concentration scale where inhibition reaches its midpoint. `Cc1ccc(Cl)c(C(=O)NCC2(c3ccc(F)nc3)CCC(F)(F)CC2)c1` [2-chloro-N-[[4,4-difluoro-1-(6-fluoro-3-pyridyl)cyclohexyl]methyl]-5-methyl-benzamide]: the IC50 turned out to be 0.00076 µM.
The result for `O=C(NCC1(c2ccc(F)nc2)CCC(F)(F)CC1)c1c(F)cccc1Cl` [2-chloro-N-[[4,4-difluoro-1-(6-fluoro-3-pyridyl)cyclohexyl]methyl]-6-fluoro-benzamide] reads 0.014 µM; that for `CC(C)(O)c1ccc(C2(CNC(=O)c3ccccc3Cl)CCC(F)(F)CC2)cn1` [2-chloro-N-[[4,4-difluoro-1-[6-(1-hydroxy-1-methyl-ethyl)-3-pyridyl]cyclohexyl]methyl]benzamide], 0.38 µM.
For `N#Cc1ccccc1C(=O)NCC1(c2ccc(C(F)(F)F)nc2)CCC(F)(F)CC1` [2-cyano-N-((4,4-difluoro-1-(6-(trifluoromethyl)pyridin-3-yl)cyclohexyl)methyl)benzamide] the value was 0.15 µM.
The result for `O=C(NCC(CC1(C(F)(F)F)CC1)c1ccc(C(F)(F)F)nc1)c1ccccc1F` (stereo not shown) [2-fluoro-N-[3-[1-(trifluoromethyl)cyclopropyl]-2-[6-(trifluoromethyl)-3-pyridyl]propyl]benzamide] reads 0.43 µM.
In the case of `O=C(NCC1(c2ccc(Cl)cc2)CCOCC1)c1cccc(Cl)c1F` [3-Chloro-N-[4-(4-chloro-phenyl)-tetrahydro-pyran-4-ylmethyl]-2-fluoro-benzamide], the IC50 was 0.89 µM.
Turning to `Cc1c(Br)cccc1C(=O)NCC1(c2ccc(C(F)(F)F)nc2)CCC(F)(F)CC1` [3-bromo-N-((4,4-difluoro-1-(6-(trifluoromethyl)pyridin-3-yl)cyclohexyl)methyl)-2-methylbenzamide], the IC50 worked out at 0.00071 µM.
For `O=C(NCC(CC1CC1)c1ccc(C(F)(F)F)nc1)c1cccc(Cl)c1F` (stereo not shown) [3-chloro-N-(3-cyclopropyl-2-(6-(trifluoromethyl)pyridin-3-yl)propyl)-2-fluorobenzamide] the value was 0.66 µM; for `O=C(NCC1(c2ccc(C(F)(F)F)nc2)CCC(F)(F)CC1)c1cccc(Cl)c1F` [3-chloro-N-((4,4-difluoro-1-(6-(trifluoromethyl)pyridin-3-yl)cyclohexyl)methyl)-2-fluorobenzamide], 0.0032 µM; for `O=C(NCC1(c2ccc(F)nc2)CCC(F)(F)CC1)c1cccc(Cl)c1F` [3-chloro-N-((4,4-difluoro-1-(6-fluoropyridin-3-yl)cyclohexyl)methyl)-2-fluorobenzamide], 0.011 µM.
The result for `Cc1c(C#N)cccc1C(=O)NCC1(c2ccc(C(F)(F)F)nc2)CCC(F)(F)CC1` [3-cyano-N-((4,4-difluoro-1-(6-(trifluoromethyl)pyridin-3-yl)cyclohexyl)methyl)-2-methylbenzamide] reads 0.045 µM.
As to `O=C(NCC1(c2ccc(Cl)cc2)CCOCC1)c1cc(Br)ccc1Cl` [5-Bromo-2-chloro-N-[4-(4-chloro-phenyl)-tetrahydro-pyran-4-ylmethyl]-benzamide], the concentration for half-maximal inhibition (IC50) came out at 0.13 µM.
The result for `CC(NC(=O)c1cccc(Cl)c1Cl)C1(c2ccc(Br)nc2)CCC(F)(F)CC1` (stereo not shown) [N-(1-(1-(6-bromopyridin-3-yl)-4,4-difluorocyclohexyl)ethyl)-2,3-dichlorobenzamide] reads 0.043 µM.
For `CS(=O)(=O)c1ccccc1C(=O)NCC1(c2ccc(C(F)(F)F)nc2)CCC(F)(F)CC1` [N-((4,4-difluoro-1-(6-(trifluoromethyl)pyridin-3-yl)cyclohexyl)methyl)-2-(methylsulfonyl)benzamide] the value was 0.48 µM; for `Cc1ccc(C(F)(F)F)cc1C(=O)NCC1(c2ccc(C(F)(F)F)nc2)CCC(F)(F)CC1` [N-((4,4-difluoro-1-(6-(trifluoromethyl)pyridin-3-yl)cyclohexyl)methyl)-2-methyl-5-(trifluoromethyl)benzamide], 0.039 µM.
For `Cc1ccccc1C(=O)NCC1(c2ccc(C(F)(F)F)nc2)CCC(F)(F)CC1` [N-((4,4-difluoro-1-(6-(trifluoromethyl)pyridin-3-yl)cyclohexyl)methyl)-2-methylbenzamide] the value was 0.0026 µM; for `Cc1c(F)cccc1C(=O)NCC1(c2ccc(C(F)(F)F)nc2)CCC(F)(F)CC1` [N-((4,4-difluoro-1-(6-(trifluoromethyl)pyridin-3-yl)cyclohexyl)methyl)-3-fluoro-2-methylbenzamide], 0.004 µM.
With `COc1cccc(C(=O)NCC2(c3ccc(C(F)(F)F)nc3)CCC(F)(F)CC2)c1C` [N-((4,4-difluoro-1-(6-(trifluoromethyl)pyridin-3-yl)cyclohexyl)methyl)-3-methoxy-2-methylbenzamide], the IC50 turned out to be 0.0016 µM.
For `Cc1ccc(F)cc1C(=O)NCC1(c2ccc(C(F)(F)F)nc2)CCC(F)(F)CC1` [N-((4,4-difluoro-1-(6-(trifluoromethyl)pyridin-3-yl)cyclohexyl)methyl)-5-fluoro-2-methylbenzamide] the value was 0.0091 µM; for `O=C(NCC1(c2ccc(F)nc2)CCC(F)(F)CC1)c1cccc(F)c1F` [N-((4,4-difluoro-1-(6-fluoropyridin-3-yl)cyclohexyl)methyl)-2,3-difluorobenzamide], 0.29 µM; for `O=C(NCC1(c2ccc(F)nc2)CCC(F)(F)CC1)c1cc(F)ccc1F` [N-((4,4-difluoro-1-(6-fluoropyridin-3-yl)cyclohexyl)methyl)-2,5-difluorobenzamide], 1.5 µM.
For the compound `Cc1cccc(C(=O)NCC2(c3ccc(F)nc3)CCC(F)(F)CC2)c1F` [N-((4,4-difluoro-1-(6-fluoropyridin-3-yl)cyclohexyl)methyl)-2-fluoro-3-methylbenzamide], the IC50 amounted to 0.078 µM.
Turning to `COc1ccc(F)c(C(=O)NCC2(c3ccc(F)nc3)CCC(F)(F)CC2)c1` [N-((4,4-difluoro-1-(6-fluoropyridin-3-yl)cyclohexyl)methyl)-2-fluoro-5-methoxybenzamide], the IC50 was 0.065 µM.
Turning to `O=C(NCC1(c2ccc(F)nc2)CCC(F)(F)CC1)c1ccccc1F` [N-((4,4-difluoro-1-(6-fluoropyridin-3-yl)cyclohexyl)methyl)-] [N-((4,4-difluoro-1-(6-fluoropyridin-3-yl)cyclohexyl)methyl)-2-fluorobenzamide], the IC50 worked out at 0.19 µM.
The result for `COc1ccc(C2(CNC(=O)c3cccc(C)c3C)CCCC2)cc1` [N-[1-(4-Methoxy-phenyl)-cyclopentylmethyl]-2,3-dimethyl-benzamide] reads 0.6 µM; that for `COc1ccc(C2(CNC(=O)c3ccccc3C)CCCC2)cc1` [N-[1-(4-Methoxy-phenyl)-cyclopentylmethyl]-2-methyl-benzamide], 1.4 µM; that for `O=C(NCC(CC1(C(F)(F)F)CC1)c1ccc(C2CC2)nc1)c1ccccc1F` (stereo not shown) [N-[2-(6-cyclopropyl-3-pyridyl)-3-[1-(trifluoromethyl)cyclopropyl]propyl]-2-fluoro-benzamide], 1.7 µM.
The result for `O=C(NCC1(c2ccc(F)nc2)CCC(F)(F)CC1)c1ccccc1F` [N-[4,4-Difluoro-1-(6-fluoro-pyridin-3-yl)-cyclohexylmethyl]-] [N-[4,4-Difluoro-1-(6-fluoro-pyridin-3-yl)-cyclohexylmethyl]-2-fluoro-benzamide] reads 0.014 µM.
The result for `Cc1ccccc1C(=O)NCC1(c2ccc(Cl)cc2)CCN(C)CC1` [N-[4-(4-Chloro-phenyl)-1-methyl-piperidin-4-ylmethyl]-2-methyl-benzamide] reads 0.06 µM; that for `O=C(NCC1(c2ccc(Cl)cc2)CCOCC1)c1cc(F)cc(F)c1F` [N-[4-(4-Chloro-phenyl)-tetrahydro-pyran-4-ylmethyl]-2,3,5-trifluoro-benzamide], 3.6 µM.
For `Cc1cccc(C(=O)NCC2(c3ccc(Cl)cc3)CCOCC2)c1C` [N-[4-(4-Chloro-phenyl)-tetrahydro-pyran-4-ylmethyl]-2,3-dimethyl-benzamide], the IC50 turned out to be 0.17 µM.
The result for `O=C(NCC1(c2ccc(Cl)cc2)CCOCC1)c1cc(F)ccc1F` [N-[4-(4-Chloro-phenyl)-tetrahydro-pyran-4-ylmethyl]-2,5-difluoro-benzamide] reads 3 µM; that for `O=C(NCC1(c2ccc(Cl)cc2)CCOCC1)c1cccc(C(F)(F)F)c1F` [N-[4-(4-Chloro-phenyl)-tetrahydro-pyran-4-ylmethyl]-2-fluoro-3-trifluoromethyl-benzamide], 4.3 µM.
The result for `COc1ccccc1C(=O)NCC1(c2ccc(Cl)cc2)CCOCC1` [N-[4-(4-Chloro-phenyl)-tetrahydro-pyran-4-ylmethyl]-2-methoxy-benzamide] reads 0.62 µM; that for `Cc1ccccc1C(=O)NCC1(c2ccc(Cl)cc2)CCOCC1` [N-[4-(4-Chloro-phenyl)-tetrahydro-pyran-4-ylmethyl]-2-methyl-benzamide], 2.1 µM; that for `O=C(NCC1(c2ccc(Cl)cc2)CCOCC1)c1ccccc1C(F)(F)F` [N-[4-(4-Chloro-phenyl)-tetrahydro-pyran-4-ylmethyl]-2-trifluoromethyl-benzamide], 1.2 µM.
On to “(−)2,3-dichloro-N-[3-cyclopropyl-2]benzamide”, for which the IC50 was determined as 0.0019 µM.
